In a compilation of properties of binary mixtures (doi:10.1016/j.jct.2022.106909):

Test: xn = mol fraction of the nth substance listed
Settings: 100 kPa

CCC(=O)[O-].C[n+]1ccn(CCO)c1 + O
viscosity [mPa·s]
Settings	288.15 K	293.15 K	298.15 K	303.15 K	308.15 K	313.15 K	318.15 K	323.15 K	328.15 K	333.15 K
x1 = 0.7595	173	126	–	70.4	57.5	45.1	36.6	30.3	25.1	21.1
x1 = 0.8082	194	145	108.2	80.5	65.2	48.5	38.9	–	–	22.2
x1 = 0.842	217	157	–	88.5	68.6	50.9	–	33.2	28.2	22.7
x1 = 0.8991	243	178	132	101.3	–	54	42.9	–	30.2	–
x1 = 0.9102	248	184	136	103.7	78.5	54.9	43.6	35.1	–	23.9

CC(=O)[O-].Cn1cc[n+](CCO)c1 + O
viscosity [mPa·s]
Settings	288.15 K	293.15 K	298.15 K	303.15 K	308.15 K	313.15 K	318.15 K	323.15 K	328.15 K	333.15 K
x1 = 0.8317	73.1	54.2	–	–	–	20.52	16.8	13.96	11.73	9.95
x1 = 0.8632	95.7	71.8	53.8	41.9	32.2	–	20.74	17.07	14.25	12.06
x1 = 0.8712	102.6	74.7	–	–	33.3	–	21.56	17.7	–	12.4
x1 = 0.8818	112.8	83.4	62	47.1	–	–	23.58	–	16.02	–
x1 = 0.9003	127.4	–	69.5	52.7	40.8	32.2	25.9	21.33	17.64	–
